Measured values from the supplement of paper PMC10627819.

Tests used:
[1] = tested on: S. pneumoniae D39V; assay: fitness (endpoint OD595 vs no drug) (fraction); higher = more growth
How it was run: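 Each well of a 384-well plate received 30 µl of culture at OD595 0.01, or 55 µl for S. pneumoniae. TSB, LB Lennox or CY served as media at 37 °C. OD595 was taken every 30 min for 14 h and corrected by subtracting the first reading. Fitness is the optical density at stationary-phase entry divided by the robust mean of no-drug controls, capped at 1.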

[2] = tested on: S. pneumoniae D39V; assay: Bliss interaction score (quartile over a dose matrix) (fitness difference); higher = more antagonism (negative = synergy)
How it was run: (§1)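 Fitness is OD595 at stationary-phase entry relative to the plate's robust no-drug mean, capped at 1. Single-drug fitness was inferred from combinations. The Bliss score is observed minus product-expected fitness, summarised by quartiles over technical, biological and donor/recipient replicates.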

[3] = tested on: S. aureus DSM 20231; assay: as above
How it was run: as §1

[4] = tested on: B. subtilis 168; assay: as above
How it was run: as §1

[5] = tested on: S. aureus Newman; assay: as above
How it was run: as §1
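For Bliss interaction score (quartile over a dose matrix) in this document: first quartile when negative (synergy) and third quartile when positive (antagonism).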

CCCCCCCCCC(=O)N[C@@H](Cc1c[nH]c2ccccc12)C(=O)N[C@H](CC(N)=O)C(=O)N[C@@H](CC(=O)O)C(=O)N[C@@H]1C(=O)NCC(=O)N[C@@H](CCCN)C(=O)N[C@@H](CC(=O)O)C(=O)N[C@H](C)C(=O)N[C@@H](CC(=O)O)C(=O)NCC(=O)N[C@H](CO)C(=O)N[C@@H]([C@H](C)CC(=O)O)C(=O)N[C@@H](CC(=O)c2ccccc2N)C(=O)O[C@@H]1C [Daptomycin] + Clc1ccc(COC(Cn2ccnc2)c2ccc(Cl)cc2Cl)c(Cl)c1 [Miconazole]
fitness, [1]
Settings	partner 1.073 µg/mL	partner 1.25 µg/mL	partner 2.145 µg/mL	partner 2.5 µg/mL	partner 4.29 µg/mL	partner 5 µg/mL
first compound 1 µg/mL	0.962	0.922	0.967	0.913	0.841	0.898
first compound 2 µg/mL	0.984	0.888	0.981	0.896	0.881	0.86
first compound 4 µg/mL	≥ 1	0.847	≥ 1	0.813	0.882	0.836

Settings	Bliss interaction score
[2]	0.0797
[3]	-0.0305
[4]	0.0988
[5]	-0.0424

CCCCCCCCCC(=O)N[C@@H](Cc1c[nH]c2ccccc12)C(=O)N[C@H](CC(N)=O)C(=O)N[C@@H](CC(=O)O)C(=O)N[C@@H]1C(=O)NCC(=O)N[C@@H](CCCN)C(=O)N[C@@H](CC(=O)O)C(=O)N[C@H](C)C(=O)N[C@@H](CC(=O)O)C(=O)NCC(=O)N[C@H](CO)C(=O)N[C@@H]([C@H](C)CC(=O)O)C(=O)N[C@@H](CC(=O)c2ccccc2N)C(=O)O[C@@H]1C [Daptomycin] + O=C1CN(/N=C/c2ccc([N+](=O)[O-])o2)C(=O)N1 [Nitrofurantoin]
fitness, [1]
Settings	partner 1.285 µg/mL	partner 2 µg/mL	partner 2.57 µg/mL	partner 4 µg/mL	partner 8 µg/mL
first compound 1 µg/mL	0.981	0.883	0.946	0.788	0.338
first compound 2 µg/mL	0.943	0.85	0.904	0.763	0.327
first compound 4 µg/mL	0.948	0.808	0.948	0.704	0.34

[1], partner 5.14 µg/mL, one replicate
Settings	fitness
first compound 1 µg/mL	0.839
first compound 2 µg/mL	0.82
first compound 4 µg/mL	0.883

Settings	Bliss interaction score
[2]	0.0606
[3]	0.0921
[4]	-0.0871
[5]	0.0519

C[C@H]1COc2c(N3CCN(C)CC3)c(F)cc3c(=O)c(C(=O)O)cn1c23 [Levofloxacin] + C/C(=C\C(=O)OCCCCCCCCC(=O)O)C[C@@H]1OC[C@H](C[C@@H]2O[C@H]2[C@@H](C)[C@H](C)O)[C@@H](O)[C@H]1O [Pseudomonic acid]
fitness, [1]
Settings	first compound 0.1725 µg/mL	first compound 0.2 µg/mL	first compound 0.345 µg/mL	first compound 0.4 µg/mL	first compound 0.69 µg/mL	first compound 0.8 µg/mL
partner 0.03 µg/mL	0.875	0.899	0.856	0.882	0.598	0.647
partner 0.06 µg/mL	0.822	0.752	0.781	0.766	0.541	0.687
partner 0.12 µg/mL	0.57	0.573	0.524	0.599	0.376	0.519

Settings	Bliss interaction score
[2]	0.0974
[3]	0.0199
[4]	0.0468
[5]	0.0537

C[C@H]1COc2c(N3CCN(C)CC3)c(F)cc3c(=O)c(C(=O)O)cn1c23 [Levofloxacin] + CN[C@H](CC(C)C)C(=O)N[C@H]1C(=O)N[C@@H](CC(N)=O)C(=O)N[C@H]2C(=O)N[C@H]3C(=O)N[C@H](C(=O)N[C@H](C(=O)O)c4cc(O)cc(O)c4-c4cc3ccc4O)[C@H](O)c3ccc(c(Cl)c3)Oc3cc2cc(c3O[C@@H]2O[C@H](CO)[C@@H](O)[C@H](O)[C@H]2O[C@H]2C[C@](C)(N)[C@H](O)[C@H](C)O2)Oc2ccc(cc2Cl)[C@H]1O [Vancomycin]
fitness, [1]
Settings	first compound 0.1725 µg/mL	first compound 0.2 µg/mL	first compound 0.345 µg/mL	first compound 0.4 µg/mL	first compound 0.69 µg/mL	first compound 0.8 µg/mL
partner 0.03125 µg/mL	–	0.931	–	0.834	–	0.365
partner 0.0625 µg/mL	–	0.893	–	0.812	–	0.436
partner 0.125 µg/mL	0.857	0.704	0.818	0.605	–	0.292
partner 0.25 µg/mL	–	–	–	–	0.213	–
partner 0.5 µg/mL	0.0371	–	0.0522	–	0.0787	–

Settings	Bliss interaction score
[2]	-0.1
[3]	-0.0494
[4]	0.0448
[5]	-0.0425

C[C@H]1COc2c(N3CCN(C)CC3)c(F)cc3c(=O)c(C(=O)O)cn1c23 [Levofloxacin] + CO[C@H]1/C=C/O[C@@]2(C)Oc3c(C)c(O)c4c(O)c(c(/C=N/N5CCN(C)CC5)c(O)c4c3C2=O)NC(=O)/C(C)=C\C=C\[C@H](C)[C@H](O)[C@@H](C)[C@@H](O)[C@@H](C)[C@H](OC(C)=O)[C@@H]1C [Rifampicin]
fitness, [1]
Settings	first compound 0.1725 µg/mL	first compound 0.345 µg/mL	first compound 0.4 µg/mL	first compound 0.69 µg/mL	first compound 0.8 µg/mL
partner 0.05 µg/mL	0.902	0.848	0.724	0.611	0.665
partner 0.2 µg/mL	0.356	–	–	0.288	–

fitness, [1], one replicate
Settings	first compound 0.2 µg/mL	first compound 0.4 µg/mL	first compound 0.8 µg/mL
partner 0.025 µg/mL	0.843	0.805	0.725
partner 0.2 µg/mL	0	0	0

Settings	Bliss interaction score
[2]	0.11
[3]	0.0251
[4]	0.0398
[5]	0.0412

C[C@H]1COc2c(N3CCN(C)CC3)c(F)cc3c(=O)c(C(=O)O)cn1c23 [Levofloxacin] + Clc1ccc(COC(Cn2ccnc2)c2ccc(Cl)cc2Cl)c(Cl)c1 [Miconazole]
[1]
Settings	fitness
first compound 0.1725 µg/mL, partner 1.25 µg/mL	0.955
first compound 0.1725 µg/mL, partner 2.5 µg/mL	0.976
first compound 0.1725 µg/mL, partner 5 µg/mL	0.963
first compound 0.2 µg/mL, partner 1.073 µg/mL	≥ 1
first compound 0.2 µg/mL, partner 2.145 µg/mL	≥ 1
first compound 0.2 µg/mL, partner 4.29 µg/mL	0.978
first compound 0.345 µg/mL, partner 1.25 µg/mL	0.866
first compound 0.345 µg/mL, partner 2.5 µg/mL	0.856
first compound 0.345 µg/mL, partner 5 µg/mL	0.859
first compound 0.4 µg/mL, partner 1.073 µg/mL	0.934
first compound 0.4 µg/mL, partner 2.145 µg/mL	0.941
first compound 0.4 µg/mL, partner 4.29 µg/mL	0.825
first compound 0.69 µg/mL, partner 1.25 µg/mL	0.576
first compound 0.69 µg/mL, partner 2.5 µg/mL	0.432
first compound 0.69 µg/mL, partner 5 µg/mL	0.578
first compound 0.8 µg/mL, partner 4.29 µg/mL	0.769

Settings	Bliss interaction score
[2]	0.11
[3]	-0.0265
[4]	0.0649
[5]	0.0464

C[C@H]1COc2c(N3CCN(C)CC3)c(F)cc3c(=O)c(C(=O)O)cn1c23 [Levofloxacin] + Cn1nnc(-c2ccc(-c3ccc(N4C[C@H](CO)OC4=O)cc3F)cn2)n1 [Tedizolid]
fitness, [1]
Settings	first compound 0.1725 µg/mL	first compound 0.2 µg/mL	first compound 0.345 µg/mL	first compound 0.4 µg/mL	first compound 0.69 µg/mL	first compound 0.8 µg/mL
partner 0.03125 µg/mL	–	0.921	–	0.855	–	0.629
partner 0.0625 µg/mL	–	0.94	–	0.878	–	0.731
partner 0.125 µg/mL	0.758	0.768	0.703	0.731	0.433	0.608
partner 0.25 µg/mL	0.826	–	0.757	–	0.401	–
partner 0.5 µg/mL	0.243	–	0.203	–	0.189	–

Settings	Bliss interaction score
[2]	-0.126
[3]	0.0821
[4]	0.0224
[5]	0.057

C[C@H]1COc2c(N3CCN(C)CC3)c(F)cc3c(=O)c(C(=O)O)cn1c23 [Levofloxacin] + O=C1CN(/N=C/c2ccc([N+](=O)[O-])o2)C(=O)N1 [Nitrofurantoin]
fitness, [1]
Settings	first compound 0.1725 µg/mL	first compound 0.2 µg/mL	first compound 0.345 µg/mL	first compound 0.4 µg/mL	first compound 0.69 µg/mL	first compound 0.8 µg/mL
partner 1.285 µg/mL	–	0.894	–	0.842	–	0.558
partner 2 µg/mL	0.921	–	0.852	–	0.568	–
partner 2.57 µg/mL	–	0.909	–	0.865	–	0.524
partner 4 µg/mL	0.92	–	0.797	–	0.535	–
partner 8 µg/mL	0.799	–	0.688	–	0.38	–

[1], partner 5.14 µg/mL, one replicate
Settings	fitness
first compound 0.2 µg/mL	0.86
first compound 0.4 µg/mL	0.75
first compound 0.8 µg/mL	0.317

Settings	Bliss interaction score
[2]	-0.0691
[3]	0.027
[4]	0.0577
[5]	-0.0599

CN(C)C(=O)C(CCN1CCC(O)(c2ccc(Cl)cc2)CC1)(c1ccccc1)c1ccccc1 [Loperamide] + C/C(=C\C(=O)OCCCCCCCCC(=O)O)C[C@@H]1OC[C@H](C[C@@H]2O[C@H]2[C@@H](C)[C@H](C)O)[C@@H](O)[C@H]1O [Pseudomonic acid]
fitness, [1]
Settings	first compound 17.14 µg/mL	first compound 20 µg/mL	first compound 34.28 µg/mL	first compound 40 µg/mL	first compound 80 µg/mL
partner 0.03 µg/mL	≥ 1	0.9	0.99	0.961	0.845
partner 0.06 µg/mL	0.859	0.726	0.808	0.766	0.747
partner 0.12 µg/mL	0.686	0.544	0.632	0.569	0.509

[1], first compound 68.57 µg/mL, one replicate
Settings	fitness
partner 0.03 µg/mL	≥ 1
partner 0.06 µg/mL	0.996
partner 0.12 µg/mL	0.663

Settings	Bliss interaction score
[2]	0.121
[3]	0.0202
[4]	-0.0528
[5]	0.0342
